Results published in EP4790046A1, “NOVEL COMPOUND DERIVED FROM MYRISTICA FRAGRANS, AND ANTICANCER COMPOSITION COMPRISING SAME” (Korea Institute of Science and Technology, priority 2023, dated 2025).
Like-named read-outs stand apart in the source and are kept apart here.

Legend:
AGS = assay: alamarBlue cell viability (survival rate, IC50), AGS; format: cell-based; details: Homo sapiens, AGS (gastric cancer); for viability at 10 µM: compound 10 µM, 48 hours, read-out: Cancer cell line survival rate (%)
Excerpt: (§1) A p-value < 0.05 was considered statistically significant.

23132/87 = assay: alamarBlue cell viability (survival rate, IC50), 23132/87; format: cell-based; details: 23132/87 (gastric cancer); for viability at 10 µM: compound 10 µM, 48 hours, read-out: Cancer cell line survival rate (%)
Excerpt: as §1

SNU-719 = assay: alamarBlue cell viability (survival rate, IC50), SNU-719; format: cell-based; details: for viability at 10 µM: SNU-719 (gastric cancer), compound 10 µM, 48 hours, read-out: Cancer cell line survival rate (%)
Excerpt: as §1

SNU-81 = assay: alamarBlue cell viability (survival rate, IC50), SNU-81; format: cell-based; details: for viability at 10 µM: SNU-81 (colorectal cancer), compound 10 µM, 48 hours, read-out: Cancer cell line survival rate (%)
Excerpt: as §1

SNU-C5 = assay: alamarBlue cell viability (survival rate, IC50), SNU-C5; format: cell-based; details: for viability at 10 µM: SNU-C5 (colorectal cancer), compound 10 µM, 48 hours, read-out: Cancer cell line survival rate (%)
Excerpt: as §1

SW48 = assay: alamarBlue cell viability (survival rate, IC50), SW48; format: cell-based; details: Homo sapiens, SW48 (colorectal cancer); for viability at 10 µM: compound 10 µM, 48 hours, read-out: Cancer cell line survival rate (%)
Excerpt: as §1

SNU201 = assay: alamarBlue cell viability (survival rate), SNU201; format: cell-based; details: SNU201 (glioblastoma), compound 10 µM, 48 hours; read-out: Cancer cell line survival rate (%)
Excerpt: as §1

SNU466 = assay: alamarBlue cell viability (survival rate), SNU466; format: cell-based; details: SNU466 (glioblastoma), compound 10 µM, 48 hours; read-out: Cancer cell line survival rate (%)
Excerpt: as §1

HepG2 = assay: alamarBlue cell viability (survival rate), HepG2; format: cell-based; details: Homo sapiens; HepG2 (liver cancer), compound 10 µM, 48 hours; read-out: Cancer cell line survival rate (%)
Excerpt: as §1

MiaPaCa-2 = assay: alamarBlue cell viability (survival rate), MiaPaCa-2; format: cell-based; details: Homo sapiens, MIA PaCa-2; MiaPaCa-2 (pancreatic cancer), compound 10 µM, 48 hours; read-out: Cancer cell line survival rate (%)
Excerpt: as §1

[1] = tested on: various cancer cell lines; assay: alamarBlue cell viability, statements across the cell line panel; details: for anticancer activity: various cancer cell lines
[2] = 2.5-40 µM, positive control = doxorubicin

| SMILES | viability at 10 µM (AGS) | viability at 10 µM (23132/87) | viability at 10 µM (SNU-719) | viability at 10 µM (SNU-81) | viability at 10 µM (SNU-C5) | viability at 10 µM (SW48) | viability at 10 µM (SNU201) | viability at 10 µM (SNU466) | viability at 10 µM (HepG2) | viability at 10 µM (MiaPaCa-2) | anticancer activity [1] | other results |
| --- | --- | --- | --- | --- | --- | --- | --- | --- | --- | --- | --- | --- |
| C=CCc1cc(OC)c(O[C@H](C)[C@H](Oc2cc(CCCCCCCCC(=O)c3c(O)cccc3O)ccc2O)c2ccc(O)c(OC)c2)c(OC)c1 [Compound 11, Myricone L] | 20.3% | 19% | 12.5% | 92.5% | 13.4% | 5.57% | 32.8% | 0.52% | 25.3% | 22% | high anticancer activity | cytotoxic effects ([1]; gastric cancer cell lines and colorectal cancer cell lines, 10 µM, 48 hours): excellent cytotoxic effects |
| C=CCc1cc(OC)c(OC(C)C(Oc2cccc(O)c2C(=O)CCCCCCCCc2ccc(O)cc2)c2ccc(O)c(OC)c2)c(OC)c1 (stereo not drawn) [Compound 12, Myricone M] | 7.89% | 0.67% | 0.53% | 2.27% | 1.98% | 2.52% | 0.75% | 0.64% | 1.23% | 3.46% | high anticancer activity |  |
| COc1cc(C(c2ccc(O)c(C(=O)CCCCCCCCc3ccc(O)c(O)c3)c2O)C(C)C(C)Cc2ccc3c(c2)OCO3)ccc1O (stereo not drawn) [Compound 14, Myricone O] | 81.4% | 78.2% | 71.6% | 104% | 18.8% | 31.1% | 101% | 56.1% | 67% | 87.8% | high anticancer activity |  |
| COc1cc([C@H]2Oc3c(OC)cc(/C=C/Cc4c(CCCCCCCCC(=O)c5c(O)cccc5O)ccc(O)c4O)cc3[C@@H]2C)ccc1O [Compound 18, Myricone T] | 91.9% | 87.1% | 104% | 102% | 78% | 83.5% | 104% | 86.2% | 89% | 74.8% |  |  |
| COc1cc([C@H]2Oc3c(OC)cc(/C=C/Cc4ccc(O)c(C(=O)CCCCCCCCc5ccc(O)c(O)c5)c4O)cc3[C@@H]2C)ccc1O [Compound 19, Myricone X] | 84.5% | 89.3% | 108% | 102% | 69.6% | 69.7% | 107% | 80.9% | 52.4% | 56.9% |  |  |
| O=C(CCCCCCCCc1cc(O)c(O)cc1-c1ccc(O)c(C(=O)CCCCCCCCc2ccc(O)c(O)c2)c1O)c1c(O)cccc1O [Compound 26, Giganteones A, reference compound] |  |  |  |  |  |  |  |  |  |  |  | IC50 (AGS; [2]): 1.71 µM; IC50 (23132/87; [2]): 4.08 µM; IC50 (SNU-719; SNU719 (gastric cancer), 2.5-40 µM, positive control = doxorubicin): 4.6 µM; IC50 (SNU-81; SNU81 (colorectal cancer), 2.5-40 µM, positive control = oxaliplatin, read-out: IC50): 8.94 µM; IC50 (SNU-C5; SNUC5 (colorectal cancer), 2.5-40 µM, positive control = oxaliplatin, read-out: IC50): 3.72 µM; IC50 (SW48; 2.5-40 µM, positive control = oxaliplatin): 2.77 µM; anticancer activity (comparison of IC50 values among compounds) ([1]; six cancer cell lines, 2.5-40 µM): overall superior activity to Myrifragranone B and Malabaricone C |
| O=C1[O][Pt]2([NH][C@@H]3CCCC[C@H]3[NH]2)[O]C1=O [oxaliplatin, reference compound] |  |  |  |  |  |  |  |  |  |  |  | IC50 (SNU-81; SNU81 cells, compound 2.5-40 µM, read-out: IC50 values): 41.5 µM; IC50 (SNU-C5; SNUC5 cells, compound 2.5-40 µM, read-out: IC50 values): 12.6 µM |
